This is an account of results in patent publication US12528786B2, “Plasma kallikrein inhibitors” (Merck Sharp & Dohme LLC, priority 2020, dated 2026).

The target in the experiment is T1, Human plasma kallikrein (Homo sapiens, UniProt P03952).
T1 construct: yields a heavy chain (371 amino acids) and a light chain (248 amino acids); purchased Enzyme Research Laboratories
T1 sequence (P03952 391-638 limits assumed): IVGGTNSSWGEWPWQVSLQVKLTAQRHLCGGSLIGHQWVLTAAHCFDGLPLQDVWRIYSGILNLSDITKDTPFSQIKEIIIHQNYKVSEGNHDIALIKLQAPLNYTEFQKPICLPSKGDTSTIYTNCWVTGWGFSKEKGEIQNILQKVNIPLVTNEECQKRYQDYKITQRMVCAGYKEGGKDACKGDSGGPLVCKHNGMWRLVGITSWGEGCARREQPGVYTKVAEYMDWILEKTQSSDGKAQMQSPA
T1 sequence (P03952 20-390 partner limits assumed): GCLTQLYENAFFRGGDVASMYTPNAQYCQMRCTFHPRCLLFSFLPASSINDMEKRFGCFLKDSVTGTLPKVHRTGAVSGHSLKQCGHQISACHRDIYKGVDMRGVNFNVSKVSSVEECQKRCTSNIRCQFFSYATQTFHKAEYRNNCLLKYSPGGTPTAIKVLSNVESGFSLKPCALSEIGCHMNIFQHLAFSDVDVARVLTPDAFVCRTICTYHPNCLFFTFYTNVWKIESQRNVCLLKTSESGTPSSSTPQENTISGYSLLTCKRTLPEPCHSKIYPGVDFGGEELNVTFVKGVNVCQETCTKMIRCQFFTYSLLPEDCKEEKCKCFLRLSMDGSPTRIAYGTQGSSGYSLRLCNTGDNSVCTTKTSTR
Briefly: Kallikrein Assay (fluorogenic substrate hydrolysis, AFC release). Conditions: purified Human plasma kallikrein 0.5 nM; substrate Acetyl-K—P—R-AFC 100 mM; 50 mM HEPES pH 7.4. It is filed as biochemical. In short, it runs like this:
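Purified human plasma kallikrein (0.5 nM final) with Acetyl-K-P-R-AFC substrate (final ≤0.2 Km) in 50 mM HEPES pH 7.4, 150 mM NaCl, 5 mM CaCl2, 0.1% PEG 8000, after enzyme–inhibitor equilibration; room temperature or 37° C. AFC fluorescence (405 Ex/510 Em nm) under linear conditions; IC50 by four-parameter fit, Ki via Cheng-Prusoff.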
On to `Cc1ccnc([C@H]2C[C@@H](NC(=O)c3cnn(C(C)c4cnc(N5C[C@H]6C[C@H]6C5=O)cc4C)c3)C2)c1` (single isomer, unassigned) [Example 33, 1-((S or R)-1-(4-methyl-6-((1R,5S)-2-oxo-3-azabicyclo[3.1.0]hexan-3-yl)pyridin-3-yl)ethyl)-N-((cis)-3-(4-methylpyridin-2-yl)cyclobutyl)-1H-pyrazole-4-carboxamide], for which the IC50 came out at 84.4 nM. The figure for `Cc1c(C(C)n2cc(C(=O)N[C@H]3C[C@@H](c4cc(Cl)ccc4C#N)C3)cn2)nnc(N2C[C@H]3C[C@H]3C2=O)c1C` (single isomer, unassigned) [Example 41, N-((cis)-3-(5-chloro-2-cyanophenyl)cyclobutyl)-1-((R or S)-1-(4,5-dimethyl-6-((1R,5S)-2-oxo-3-azabicyclo[3.1.0]hexan-3-yl)pyridazin-3-yl)ethyl)-1H-pyrazole-4-carboxamide] is 15.8 nM; for `Cc1ccc(C#N)c([C@H]2C[C@@H](NC(=O)c3cn(C(C)c4cnc(N5C[C@H]6C[C@H]6C5=O)c(C)c4C)nn3)C2)n1` (single isomer, unassigned) [Example 99, N-((cis)-3-(3-cyano-6-methylpyridin-2-yl)cyclobutyl)-1-((S or R)-1-(4,5-dimethyl-6-((1R,5S)-2-oxo-3-azabicyclo[3.1.0]hexan-3-yl)pyridin-3-yl)ethyl)-1H-1,2,3-triazole-4-carboxamide] it is 0.6 nM; for `Cc1cc([C@@H](C)n2cc(C(=O)N[C@H]3C[C@@H](c4cc(Cl)ccc4C#N)C3)cn2)cnc1N1C[C@H]2C[C@H]2C1=O` (single isomer, unassigned) [Example 6] it is 0.7 nM. In the case of `Cc1nn(C(C)c2cnc(N3C[C@H]4C[C@H]4C3=O)nc2)cc1C(=O)N[C@H]1C[C@@H](c2cc(Cl)ccc2C#N)C1` (single isomer, unassigned) [Example 15, N-((cis)-3-(5-chloro-2-cyanophenyl)cyclobutyl)-3-methyl-1-((R or S)-1-(2-((1R,5S)-2-oxo-3-azabicyclo[3.1.0]hexan-3-yl)pyrimidin-5-yl)ethyl)-1H-pyrazole-4-carboxamide], the IC50 is 2.6 nM.

`Cc1cc(N2C[C@H]3C[C@H]3C2=O)ncc1C(C)n1cc(C(=O)N[C@H]2C[C@@H](c3cc(F)ccc3C#N)C2)cn1` (single isomer, unassigned) [Example 35, N-((cis)-3-(2-cyano-5-fluorophenyl)cyclobutyl)-1-((S or R)-1-(4-methyl-6-((1R,5S)-2-oxo-3-azabicyclo[3.1.0]hexan-3-yl)pyridin-3-yl)ethyl)-1H-pyrazole-4-carboxamide] came in with an IC50 of 102 nM. For the compound `COc1c(N2C[C@H]3C[C@H]3C2=O)ncc(C(C)n2cc(C(=O)N[C@H]3C[C@@H](c4cc(Cl)ccc4C#N)C3)cn2)c1C` (single isomer, unassigned) [Example 44, N-((cis)-3-(5-chloro-2-cyanophenyl)cyclobutyl)-1-((S or R)-1-(5-methoxy-4-methyl-6-((1R,5S)-2-oxo-3-azabicyclo[3.1.0]hexan-3-yl)pyridin-3-yl)ethyl)-1H-pyrazole-4-carboxamide], the 50% inhibitory concentration (IC50) was 0.2 nM. As to `Cc1cc(N2C[C@H]3C[C@H]3C2=O)ncc1C(C)n1cc(C(=O)N[C@H]2C[C@@](F)(c3cc(Cl)ccc3C#N)C2)nn1` (single isomer, unassigned) [Example 75, N-(cis)-3-(5-chloro-2-cyanophenyl)-3-fluorocyclobutyl)-1-((R or S)-1-(4-methyl-6-((1R,5S)-2-oxo-3-azabicyclo[3.1.0]hexan-3-yl)pyridin-3-yl)ethyl)-1H-1,2,3-triazole-4-carboxamide], the IC50 turned out to be 0.2 nM.

In turn, `Cc1c(C(C)n2cc(C(=O)N[C@H]3C[C@@H](c4cc(Cl)ccc4C#N)C3)cn2)cnc(N2C[C@H]3C[C@H]3C2=O)c1C` (single isomer, unassigned) [Example 40, N-((cis)-3-(5-chloro-2-cyanophenyl)cyclobutyl)-1-((S or R)-1-(4,5-dimethyl-6-((1R,5S)-2-oxo-3-azabicyclo[3.1.0]hexan-3-yl)pyridin-3-yl)ethyl)-1H-pyrazole-4-carboxamide] returned an IC50 of 0.7 nM.

On to `Cc1cc(C(C)n2cc(C(=O)N[C@H]3C[C@@H](c4cc(Cl)ccc4C#N)C3)cn2)nnc1N1C[C@H]2C[C@H]2C1=O` (single isomer, unassigned) [Example 30, N-((cis)-3-(5-chloro-2-cyanophenyl)cyclobutyl)-1-((R or S)-1-(5-methyl-6-((1R,5S)-2-oxo-3-azabicyclo[3.1.0]hexan-3-yl)pyridazin-3-yl)ethyl)-1H-pyrazole-4-carboxamide], for which the IC50 came to 2.4 nM.

For the compound `CC(c1ccc(N2C[C@H]3C[C@H]3C2=O)nc1)n1cc(C(=O)N[C@H]2C[C@@H](c3cc(Cl)ccc3C#N)C2)nn1` (single isomer, unassigned) [Example 57, N-((cis)-3-(5-chloro-2-cyanophenyl)cyclobutyl)-1-((R or S)-1-(6-((1R,5S)-2-oxo-3-azabicyclo[3.1.0]hexan-3-yl)pyridin-3-yl)ethyl)-1H-1,2,3-triazole-4-carboxamide], half-maximal inhibition (IC50) was put at 7.7 nM. The compound `Cc1c(C(C)n2cc(C(=O)N[C@H]3C[C@@H](c4cc(Cl)ccc4C#N)C3)nn2)cnc(N2C[C@H]3C[C@H]3C2=O)c1C` (single isomer, unassigned) [Example 86, N-((cis)-3-(5-chloro-2-cyanophenyl)cyclobutyl)-1-((R or S)-1-(4,5-dimethyl-6-((1R,5S)-2-oxo-3-azabicyclo[3.1.0]hexan-3-yl)pyridin-3-yl)ethyl)-1H-1,2,3-triazole-4-carboxamide] came in with an IC50 of 1.1 nM. The figure for `Cc1ccc(C#N)c([C@H]2C[C@@H](NC(=O)c3cn(C(C)c4cnc(N5C[C@H]6C[C@H]6C5=O)c(C)c4)nn3)C2)c1` (single isomer, unassigned) [Example 134, N-((cis)-3-(2-cyano-5-methylphenyl)cyclobutyl)-1-((S or R)-1-(5-methyl-6-((1R,5S)-2-oxo-3-azabicyclo[3.1.0]hexan-3-yl)pyridin-3-yl)ethyl)-1H-1,2,3-triazole-4-carboxamide] is 5.4 nM; for `Cc1cc(N2C[C@H]3C[C@H]3C2=O)ncc1C(C)n1cc(C(=O)N[C@@H]2CC[C@H](c3cc(Cl)ccc3C#N)C2)nn1` (single isomer, unassigned) [Example 63, N-((1R,3S)-3-(5-chloro-2-cyanophenyl)cyclopentyl)-1-((S or R)-1-(4-methyl-6-((1R,5S)-2-oxo-3-azabicyclo[3.1.0]hexan-3-yl)pyridin-3-yl)ethyl)-1H-1,2,3-triazole-4-carboxamide] it is 26 nM; for `Cc1ccc(C#N)c([C@H]2C[C@@H](NC(=O)c3cnn(C(C)c4cnc(N5C[C@H]6C[C@H]6C5=O)c(C)c4C)c3)C2)c1` (single isomer, unassigned) [Example 46, N-((cis)-3-(2-cyano-5-methylphenyl)cyclobutyl)-1-((S or R)-1-(4,5-dimethyl-6-((1R,5S)-2-oxo-3-azabicyclo[3.1.0]hexan-3-yl)pyridin-3-yl)ethyl)-1H-pyrazole-4-carboxamide] it is 2.7 nM. For the compound `COc1cc(C(C)n2cc(C(=O)N[C@H]3C[C@@H](c4cc(Cl)ccc4C#N)C3)nn2)cnc1N1C[C@H]2C[C@H]2C1=O` (single isomer, unassigned) [Example 101, N-((cis)-3-(5-chloro-2-cyanophenyl)cyclobutyl)-1-((R or S)-1-(5-methoxy-6-((1R,5S)-2-oxo-3-azabicyclo[3.1.0]hexan-3-yl)pyridin-3-yl)ethyl)-1H-1,2,3-triazole-4-carboxamide], it took 1.8 nM to reach half-maximal inhibition (IC50). This IC50 lies about 1.5-fold lower than the previous one. As for `Cc1cc(N2C[C@H]3C[C@H]3C2=O)ncc1[C@H](C)n1cc(C(=O)N[C@H]2C[C@@H](c3cc(Cl)ccc3-n3cc(F)cn3)C2)nn1` [Example 149, N-((cis)-3-(5-chloro-2-(4-fluoro-1H-pyrazol-1-yl)phenyl)cyclobutyl)-1-((S)-1-(4-methyl-6-((1R,5S)-2-oxo-3-azabicyclo[3.1.0]hexan-3-yl)pyridin-3-yl)ethyl)-1H-1,2,3-triazole-4-carboxamide], the figure is 5 nM; as for `N#Cc1ccc(Cl)cc1[C@H]1C[C@@H](NC(=O)c2cn(Cc3cnc(N4C[C@H]5C[C@H]5C4=O)nc3)nn2)C1` [Example 79, N-((cis)-3-(5-chloro-2-cyanophenyl)cyclobutyl)-1-((2-((1R,5S)-2-oxo-3-azabicyclo[3.1.0]hexan-3-yl)pyrimidin-5-yl)methyl)-1H-1,2,3-triazole-4-carboxamide], 16.1 nM. As for `Cc1ccc(C#N)c([C@H]2C[C@@H](NC(=O)c3cnn(C(C)c4cnc(N5C[C@H]6C[C@H]6C5=O)cc4C)c3)C2)c1` (single isomer, unassigned) [Example 36, N-((cis)-3-(2-cyano-5-methylphenyl)cyclobutyl)-1-((R or S)-1-(4-methyl-6-((1R,5S)-2-oxo-3-azabicyclo[3.1.0]hexan-3-yl)pyridin-3-yl)ethyl)-1H-pyrazole-4-carboxamide], the figure is 1.1 nM; as for `COCc1nn(C(C)c2cnc(N3C[C@H]4C[C@H]4C3=O)cc2C)cc1C(=O)N[C@H]1C[C@@H](c2cc(Cl)ccc2C#N)C1` (single isomer, unassigned) [Example 49, N-((cis)-3-(5-chloro-2-cyanophenyl)cyclobutyl)-3-(methoxymethyl)-1-((R or S)-1-(4-methyl-6-((1R,5S)-2-oxo-3-azabicyclo[3.1.0]hexan-3-yl)pyridin-3-yl)ethyl)-1H-pyrazole-4-carboxamide], 0.4 nM. The figure for `C[C@@H](c1cncc(N2C[C@H]3C[C@H]3C2=O)c1)n1cc(C(=O)N[C@H]2C[C@@H](c3cc(Cl)ccc3C#N)C2)nn1` (single isomer, unassigned) [Example 138] is 11.1 nM. The compound `Cc1c(C(C)n2cc(C(=O)NC3CC(c4cc(Cl)ccc4C#N)C3)cn2)cnc(N2C[C@H]3C[C@H]3C2=O)c1Cl` (single isomer, unassigned) [Example 168] returned an IC50 of 0.1 nM.

As a reminder, the IC50 is the point on the concentration scale where inhibition reaches its midpoint. Low readings indicate inhibition by little substance, high ones a need for much substance.
